Results reported in patent US7557066B2, “Use of sulfonylureas” (Bayer CropScience AG, priority 2004, dated 2009).

Key:
[1] = system: monocotyledonous and dicotyledonous weed plants; experiment: Pre-emergence effect on weeds (greenhouse, visual scoring); assay type: in vivo, weed grasses and broad-leaved weeds; conditions: 100 g or less of active substance per hectare; against Sinapsis alba, Chrysanthemum segetum, Avena sativa, Stellaria media, Echinochloa crus-galli, Lolium multiflorum, Setaria viridis, Abutilon theophrasti, Amaranthus retroflexus, Brachiaria plantaginea, Solanum nigrum, Euphorbia heterophylla, Sorghum halepense, Panicum miliaceum; scored after 3 to 4 weeks
From the text: Seeds or rhizome pieces of monocotyledonous and dicotyledonous weed plants were placed in sandy loam soil in cardboard pots and covered with soil. The compounds of the formula (I) or their salts, formulated in the form of wettable powders or emulsion concentrates, were then applied to the surface of the soil cover in the form of aqueous suspensions or emulsions at an application rate of 600 to 800 l of water/ha (converted) in various dosages.
After the treatment, the pots were placed in a greenhouse and kept under good growth conditions for the weeds. After the test plants had emerged, the damage to the plants or the negative effect on the emergence was scored visually after a test period of 3 to 4 weeks by comparison with untreated controls. As shown by the test results, the compounds tested have good herbicidal pre-emergence activity against a broad spectrum of weed grasses and broad-leaved weeds. […] Post-Emergence Effect on Weeds

[2] = system: monocotyledonous and dicotyledonous weeds; experiment: Post-emergence effect on weeds (greenhouse, visual scoring); assay type: in vivo, weed grasses and broad-leaved weeds; conditions: 100 g or less of active substance per hectare; against Sinapsis alba, Echinochloa crus-galli, Lolium multiflorum, Chrysanthemum segetum, Setaria viridis, Abutilon theophrasti, Amaranthus retroflexus, Panicum miliaceum, Brachiaria plantaginea, Solanum nigrum, Euphorbia heterophylla, Sorghum halepense, Avena sativa; scored after about 3 to 4 weeks
Experimental: (§1) Seeds or rhizome pieces of monocotyledonous and dicotyledonous weeds were placed in a sandy loam soil in plastic pots, covered with soil and cultivated in a greenhouse under good growth conditions. Three weeks after sowing, the test plants were treated at the three-leaf stage. The compounds of the formula (I) or their salts, formulated as wettable powders or as emulsion concentrates, were sprayed, at various dosages, onto the green parts of the plants at an application rate of 600 to 800 l of water/ha (converted). After the test plants had remained in the greenhouse for about 3 to 4 weeks under optimum growth conditions, the effect of the preparations was scored visually by comparison with untreated controls. The tested compounds also have good herbicidal post-emergence activity against a broad spectrum of economically important weed grasses and broad-leaved weeds. […] Crop Plant Compatibility

soybeans (Glycine max.) = experiment: Crop plant compatibility (greenhouse, visual scoring); assay type: in vivo; conditions: for damage to crops of leguminous plants, such as soybeans: pre-emergence or post-emergence method, various dosages, visual scoring four to five weeks after application
Experimental: In further greenhouse experiments, seeds of a substantial number of crop plants and weeds were placed into sandy loam soil and covered with soil. Some of the pots were treated immediately as described under Section 1, and the remaining pots were placed in a greenhouse until the plants had developed two to three true leaves and then sprayed with various dosages of the compounds of the formula (I) or salts thereof, as described in Section 2.

Amaranthus retroflexus = experiment: Post-emergence effect on weeds; assay type: in vivo; conditions: 30 g of active substance per hectare
Experimental: as §1

Brachiaria plantaginea = experiment: Post-emergence effect on weeds; assay type: in vivo; conditions: 30 g of active substance per hectare
Experimental: as §1

Echinochloa crus-galli = experiment: Post-emergence effect on weeds; assay type: in vivo; conditions: 30 g of active substance per hectare
Experimental: as §1

Setaria viridis = experiment: Post-emergence effect on weeds; assay type: in vivo; conditions: 30 g of active substance per hectare
Experimental: as §1

Solanum nigrum = experiment: Post-emergence effect on weeds; assay type: in vivo; conditions: 30 g of active substance per hectare
Experimental: as §1

CIRAR = experiment: Inhibition of revegetation of perennial plants; assay type: in vivo; conditions: 600 g of a.i./ha; cut four weeks after application, scored after a further four weeks; 100% = total inhibition
From the text: (§2) […] Four weeks after the application, the above-ground parts of the plants were cut off. After a further four weeks, the inhibition of revegetation was scored in percent of the control, 100% corresponding to a total inhibition of revegetation.

LOLPE = experiment: Inhibition of revegetation of perennial plants; assay type: in vivo; conditions: 600 g of a.i./ha; cut four weeks after application, scored after a further four weeks; 100% = total inhibition
From the text: as §2

SMILES | herbicidal action in the pre-emergence method [1] | herbicidal action by the post-emergence method [2] | damage to crops of leguminous plants, such as soybeans (soybeans (Glycine max.)) | further results
COc1cc(C)nc(NC(=O)[N-]S(=O)(=O)c2ncccc2C2=NOCCO2)n1.[Na+] [I-3] | very good herbicidal action | very good herbicidal action | did not damage | 
CCOc1cc(Cl)nc(NC(=O)[N-]S(=O)(=O)c2ncccc2C2=NOCCO2)n1.[Na+] [I-22] | very good herbicidal action | very good herbicidal action | did not damage | 
CCOc1cc(Cl)nc(NC(=O)NS(=O)(=O)c2ncccc2C2=NOCCO2)n1 [I-21] | very good herbicidal action | very good herbicidal action | did not damage | 
COc1cc(Cl)nc(NC(=O)NS(=O)(=O)c2ncccc2C2=NOCCO2)n1 [I-9] | very good herbicidal action | very good herbicidal action | did not damage | herbicidal activity against Amaranthus retroflexus (Amaranthus retroflexus): 93%; herbicidal activity against Brachiaria plantaginea (Brachiaria plantaginea): 100%; herbicidal activity against Echinochloa crus-galli (Echinochloa crus-galli): 100%; herbicidal activity against Setaria viridis (Setaria viridis): 100%; herbicidal activity against Solarium nigrum (Solanum nigrum): 100%; damage to soybeans (Glycine max.) (soybeans (Glycine max.); 8 g of active substance per hectare): 0%
O=C([N-]S(=O)(=O)c1ncccc1C1=NOCCO1)Nc1nc(Cl)cc(OCC(F)(F)F)n1.[Na+] [I-145] | very good herbicidal action | very good herbicidal action | did not damage | 
Cc1cc(Cl)nc(NC(=O)NS(=O)(=O)c2ncccc2C2=NOCCO2)n1 [I-29] | very good herbicidal action | very good herbicidal action | did not damage | 
COc1cc(Cl)nc(NC(=O)[N-]S(=O)(=O)c2ncccc2C2=NOCCO2)n1.[Na+] [I-10] | very good herbicidal action | very good herbicidal action | did not damage | 
CCOc1cc(OC)nc(NC(=O)NS(=O)(=O)c2ncccc2C2=NOCCO2)n1 [I-1] | very good herbicidal action | very good herbicidal action | did not damage | 
CCOc1nc(Cl)nc(NC(=O)[N-]S(=O)(=O)c2ncccc2C2=NOCCO2)n1.[Na+] [I-70] | very good herbicidal action | very good herbicidal action | did not damage | 
COc1nc(NC(=O)[N-]S(=O)(=O)c2ncccc2C2=NOCCO2)nc(OC)n1.[Na+] [I-52] | very good herbicidal action | very good herbicidal action | did not damage | 
CCOc1cc(OCC)nc(NC(=O)[N-]S(=O)(=O)c2ncccc2C2=NOCCO2)n1.[Na+] [I-14] | very good herbicidal action | very good herbicidal action | did not damage | 
Cc1cc(C)nc(NC(=O)NS(=O)(=O)c2ncccc2C2=NOCCO2)n1 [I-23] | very good herbicidal action | very good herbicidal action | did not damage | 
COc1cc(N(C)C)nc(NC(=O)NS(=O)(=O)c2ncccc2C2=NOCCO2)n1 [I-8] | very good herbicidal action | very good herbicidal action | did not damage | 
CN(C)c1nc(NC(=O)NS(=O)(=O)c2ncccc2C2=NOCCO2)nc(OCC(F)(F)F)n1 [I-142] | very good herbicidal action | very good herbicidal action | did not damage | 
O=C(O)CNCP(=O)(O)O [Glyphosate] |  |  |  | inhibition of revegetation, CIRAR (CIRAR): 25%; inhibition of revegetation, LOLPE (LOLPE): 35%
COc1cc(OC)nc(NC(=O)NS(=O)(=O)c2ncccc2C2=NOCCO2)n1 [I-11] | very good herbicidal action | very good herbicidal action | did not damage | 
O=C(Nc1nc(Cl)cc(OCC(F)(F)F)n1)NS(=O)(=O)c1ncccc1C1=NOCCO1 [I-143] | very good herbicidal action | very good herbicidal action | did not damage | 
COc1nc(NC(=O)NS(=O)(=O)c2ncccc2C2=NOCCO2)nc(OC)n1 [I-51] | very good herbicidal action | very good herbicidal action | did not damage | 
Cc1cc(Cl)nc(NC(=O)[N-]S(=O)(=O)c2ncccc2C2=NOCCO2)n1.[Na+] [I-30] | very good herbicidal action | very good herbicidal action | did not damage | 
COc1cc(OC)nc(NC(=O)[N-]S(=O)(=O)c2ncccc2C2=NOCCO2)n1.[Na+] [I-12] | very good herbicidal action | very good herbicidal action | did not damage | 
COc1nc(NC(=O)[N-]S(=O)(=O)c2ncccc2C2=NOCCO2)nc(N(C)C)n1.[Na+] [I-60] | very good herbicidal action | very good herbicidal action | did not damage | 
